Where two headings read alike, the source gives them in different places.
Legend:
[1] = target: T1, PI3Kα (Homo sapiens, UniProt P42336); test: PI3K Alpha Leadseeker SPA Assay; assay type: biochemical; details: His-p110/p85 PI3K alpha, P33-ATP, PEI-PS Leadseeker beads; read-out: IC50 against PI3Kα
T1 construct: His
Experimental: PI3K Alpha Leadseeker SPA Assay
Compounds of the present invention were tested according to the following assays and found as inhibitors of PI3 kinases, particularly PI3Kα. The activities (IC50) range from 1 nM to 500 μM against PI3Kα.
SPA imaging beads are microspheres containing scintillant which emit light in the red region of the visible spectrum. As a result, these beads are ideally suited to use with a CCD imager such as the Viewlux. The Leadseeker beads used in this system are polystyrene beads that have been coupled with polyethyleneimine. When added to the assay mixture, the beads absorb both the substrate (PIP2) and product (PIP3). Adsorbed P^33-PIP3 will cause an increase in signal, measured as ADUs (analog to digital units). This protocol details the use of the PEI-PS Leadseeker beads for assays using His-p110/p85 PI3K alpha.
Solid compounds are typically plated with 0.1 μl of 100% DMSO in all wells (except column 6 and 18) of a 384-well, flat bottom, low volume plate (Greiner 784075). The compounds are serially diluted (3-fold in 100% DMSO) across the plate from column 1 to column 12 and column 13 to column 24 and leave column 6 and 18 containing only DMSO to yield 11 concentrations for each test compound. […] The signal is determined using a Viewlux detector and is then imported into curve fitting software (Activity Base) for construction of concentration response curves. […]

[2] = target: CK2 protein kinase (Homo sapiens, UniProt P68400); details: cited from earlier work
Sequence of CK2 protein kinase (P68400 whole entry): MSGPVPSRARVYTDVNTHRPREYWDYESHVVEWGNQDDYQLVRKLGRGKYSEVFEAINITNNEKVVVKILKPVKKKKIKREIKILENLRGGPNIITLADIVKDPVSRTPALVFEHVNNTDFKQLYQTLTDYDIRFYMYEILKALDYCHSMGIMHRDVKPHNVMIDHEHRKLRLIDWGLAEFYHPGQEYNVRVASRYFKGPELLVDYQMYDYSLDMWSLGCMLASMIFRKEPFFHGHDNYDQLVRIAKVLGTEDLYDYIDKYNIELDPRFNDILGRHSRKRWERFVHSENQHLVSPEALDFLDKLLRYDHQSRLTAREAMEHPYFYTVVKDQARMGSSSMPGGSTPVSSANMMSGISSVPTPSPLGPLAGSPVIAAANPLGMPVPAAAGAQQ

[3] = system: Class I PI3-kinases; details: cited from earlier work

T1 sequence (P42336 whole entry): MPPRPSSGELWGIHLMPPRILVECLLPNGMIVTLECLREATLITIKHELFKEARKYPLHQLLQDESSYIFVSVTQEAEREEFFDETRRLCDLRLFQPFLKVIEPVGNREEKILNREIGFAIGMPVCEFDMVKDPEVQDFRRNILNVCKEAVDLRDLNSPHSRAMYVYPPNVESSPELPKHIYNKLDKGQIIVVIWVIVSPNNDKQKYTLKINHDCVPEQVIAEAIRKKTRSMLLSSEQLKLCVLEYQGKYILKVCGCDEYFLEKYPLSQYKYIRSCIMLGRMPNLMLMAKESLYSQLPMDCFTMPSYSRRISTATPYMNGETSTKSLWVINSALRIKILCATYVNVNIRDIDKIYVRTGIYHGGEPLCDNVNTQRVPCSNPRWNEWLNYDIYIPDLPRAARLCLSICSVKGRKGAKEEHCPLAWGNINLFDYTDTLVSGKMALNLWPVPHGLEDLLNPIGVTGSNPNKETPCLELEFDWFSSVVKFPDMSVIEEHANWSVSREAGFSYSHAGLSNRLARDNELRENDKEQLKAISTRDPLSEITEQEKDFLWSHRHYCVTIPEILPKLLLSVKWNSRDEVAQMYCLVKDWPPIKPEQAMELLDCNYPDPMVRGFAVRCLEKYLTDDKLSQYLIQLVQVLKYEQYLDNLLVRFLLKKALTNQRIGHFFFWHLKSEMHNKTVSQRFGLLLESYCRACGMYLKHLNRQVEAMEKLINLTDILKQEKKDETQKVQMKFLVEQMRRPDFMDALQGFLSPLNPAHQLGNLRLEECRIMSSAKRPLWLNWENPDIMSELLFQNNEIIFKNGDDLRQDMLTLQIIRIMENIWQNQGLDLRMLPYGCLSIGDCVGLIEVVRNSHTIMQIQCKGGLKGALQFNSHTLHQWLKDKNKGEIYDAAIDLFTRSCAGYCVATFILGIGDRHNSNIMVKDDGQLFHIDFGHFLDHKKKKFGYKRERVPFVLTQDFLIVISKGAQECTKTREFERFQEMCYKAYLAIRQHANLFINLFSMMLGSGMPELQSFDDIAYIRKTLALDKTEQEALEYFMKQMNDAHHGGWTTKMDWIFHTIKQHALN
T1 sequence (P27986 whole entry partner): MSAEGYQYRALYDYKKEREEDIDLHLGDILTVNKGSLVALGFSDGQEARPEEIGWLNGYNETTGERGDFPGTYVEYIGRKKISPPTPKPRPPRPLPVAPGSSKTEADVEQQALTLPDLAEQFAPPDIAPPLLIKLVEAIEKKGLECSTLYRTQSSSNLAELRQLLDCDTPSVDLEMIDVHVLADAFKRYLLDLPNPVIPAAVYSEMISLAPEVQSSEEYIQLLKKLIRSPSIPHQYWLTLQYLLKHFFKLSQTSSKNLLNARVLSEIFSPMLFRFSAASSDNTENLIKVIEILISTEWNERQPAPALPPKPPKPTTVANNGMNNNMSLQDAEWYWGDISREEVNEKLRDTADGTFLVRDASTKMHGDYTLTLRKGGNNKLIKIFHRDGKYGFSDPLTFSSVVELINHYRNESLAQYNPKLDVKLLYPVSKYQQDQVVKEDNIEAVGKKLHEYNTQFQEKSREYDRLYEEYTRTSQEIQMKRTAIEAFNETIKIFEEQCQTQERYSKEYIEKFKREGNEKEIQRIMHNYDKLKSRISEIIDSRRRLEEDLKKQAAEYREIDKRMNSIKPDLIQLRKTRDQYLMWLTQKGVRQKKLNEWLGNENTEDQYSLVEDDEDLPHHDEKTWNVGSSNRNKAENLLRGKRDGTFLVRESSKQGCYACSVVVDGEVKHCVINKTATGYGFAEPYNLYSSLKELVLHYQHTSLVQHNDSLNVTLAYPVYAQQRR

With `O=C1NC(=O)/C(=C/c2ccc3nccc(-c4ccncc4)c3c2)S1` [Example 1, (5Z)-5-{[4-(4-pyridinyl)-6-quinolinyl]methylidene}-1,3-thiazolidine-2,4-dione] as the compound, how does the IC50 [1] read?
The IC50 was 1 nM.

Which results are given for `O=c1cc(N2CCOCC2)oc2c(-c3ccccc3)cccc12` [LY294002]?
IC50 [2]: 5000 to 10000 nM; IC50 ([3]; read-out: IC50 values against each of these PI3-kinases): 15000 to 20000 nM

For `COC[C@H]1OC(=O)c2coc3c2[C@@]1(C)C1=C(C3=O)[C@@H]2CCC(=O)[C@@]2(C)C[C@H]1OC(C)=O` [wortmannin], which IC50 ([3]; read-out: IC50 values against each of the various Class I PI3-kinases) is on record?
Its IC50 is 1 to 10 nM.
